Entries after “also recorded” stand apart in the source; their conditions may differ. Read-outs that look alike come from different tables or passages of the source.
How the values were obtained:
5HT2C receptors [1] = biological target: T1, 5HT2C receptors (Homo sapiens, UniProt P28335); test: Human 5-HT2C functional assay in CHO-K1 cells (calcium flux, FLIPR); format: cell-based; parameters: expressed in transfected cells; host or cells: CHO-K1 cells; settings: for Emax: percentage relative to the effect of serotonin
T1 sequence (P28335 33-458): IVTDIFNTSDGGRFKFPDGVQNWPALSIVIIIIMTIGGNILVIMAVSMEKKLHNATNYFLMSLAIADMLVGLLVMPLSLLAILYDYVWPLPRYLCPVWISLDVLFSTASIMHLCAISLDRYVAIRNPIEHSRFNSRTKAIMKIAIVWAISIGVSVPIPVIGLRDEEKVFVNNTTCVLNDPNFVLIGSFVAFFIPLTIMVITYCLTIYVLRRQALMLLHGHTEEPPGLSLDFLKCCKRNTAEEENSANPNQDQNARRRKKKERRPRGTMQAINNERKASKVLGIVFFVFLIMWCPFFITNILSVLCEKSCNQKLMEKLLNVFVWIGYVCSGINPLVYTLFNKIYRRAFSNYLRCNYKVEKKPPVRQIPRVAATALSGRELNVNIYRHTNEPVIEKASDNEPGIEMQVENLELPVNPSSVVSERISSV
How it was run: (§1)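 Frozen CHO-K1 cells over-expressing receptor, serum-starved overnight, loaded with Ca4 dye plus 2.5 mM probenecid for 60 min at room temperature. FLIPR fluorescence (ex 480/em 530 nm, 25° C) recorded 3 min after compound addition; 6-point 1:10 series from 10 μM, 0.2% DMSO. Response normalized to serotonin, 4-parameter fit gives EC50; Emax as % of serotonin.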

5HT2C receptors [2] = biological target: T1, 5HT2C receptors; test: Human 5-HT2C functional assay in 1321N1 cells (intracellular calcium, FLIPR); format: cell-based; parameters: expressed in transfected cells; host or cells: 1321N1 cells; settings: for EC50: 1321N1 cells stably transfected, maximum calcium response, read-out: EC50 (μM), 5-HT2c Agonist Activity
Method: (ii) Human 5-HT2C Functional Assay in 1321N1 Cells
Functional activity was determined by testing the effect of the compounds on intracellular calcium levels in 1321N1 cells stably transfected with the human 5-HT2C receptor. Cells were seeded into 96-well plates at 50,000 cells/well and grown overnight in tissue culture medium (DMEM with Glutamax I (Invitrogen), containing 10% dFCS, 50 μg/mL Gentamicin, 400 μg/mL Geneticin) at 37° C. and 7% CO2. Growth medium was replaced by medium without dFCS for overnight incubation. Cells were loaded with a fluorescent calcium-sensitive dye in the presence of 1% probenicid according to the manufacturer's protocol (Fluo4 AM, Molecular Devices). Serial compound dilutions (final concentrations 10^−10 to 10^−5 M) were added to the cells either alone or in the presence of serotonin (10^−9 M) and the maximum calcium response was determined using a FLIPR instrument (Molecular Devices). Concentration-response curves were fitted using a four-parameter logistic equation (GraphPad Prism). The concentration at which the compound exerts half its maximal effect is named the ‘effective concentration 50’ or ‘EC50’ and is listed in Table 2.
Emax is the maximum functional response or efficacy expressed as a percentage relative to the effect of serotonin.

[3] = biological target: T2, human serotonin 5-HT2c receptor (Homo sapiens, UniProt P28335); test: Human 5-HT2C receptor radioligand binding assay (agonist site, [125I](±)DOI); settings: membranes of transfected CHO cells, 0.2 nM [125I](±)DOI, 15 minutes at 37° C.
T2 construct: expressed in transfected cells; host or cells: CHO cells (membrane homogenate)
T2 sequence (P28335 33-458): T1 sequence (P28335 33-458)
Method: To determine the effectiveness of compounds having a formula (I), these compounds can be evaluated in a radioligand binding assay for the agonist site of the human serotonin 5-HT2c receptor or in vitro models of cellular function.
(i) Human 5-HT2C Receptor Radioligand Binding Assay
Affinity of compounds for the agonist site of the 5-HT2c receptor in transfected CHO cells was determined in a radioligand binding assay essentially as described by Bryant, H. U., et al., Life Sciences (1996) 59(15), 1259-1268.

[4] = tested on: AMP-induced hyperactivity; test: d-Amphetamine-induced hyperlocomotion in mice; format: in vivo
Excerpt: (v) Assessment of Effects on Psychostimulant-Induced Hyperlocomotion in Mice
In both humans and experimental animals amphetamine profoundly affects motor activity, sensorimotor function, sleep, attention, aggressive and sexual behaviors, learning and memory, operant behaviors, appetite and food intake. In addition, amphetamine induces psychotic reactions in normal individuals and exacerbates symptoms of schizophrenia in patients. In experimental animals several distinct behaviors are considered to be correlates of amphetamine psychosis. For example, amphetamine-induced hyperactivity in rodents is believed to model the psychotic symptoms of schizophrenia. Reversal of these behaviors is used to predict potential antipsychotic activity of drugs in pre-clinical studies.
Male NMRI mice (5-week old, Janvier, France) or C57BL/6J mice (6-week old, Janvier, France) were group housed and allowed ad-libitum access to food and water. A 12 hour light/dark cycle was imposed with lights-on period between 0530 and 1730 hours. All testing occurred between 700 and 1300 hours. All procedures were approved by Abbott Institutional Animal Care and Use Committee (USA) or Animal Welfare Officer (Germany) and were conducted in accordance with the National Institutes of Health Guide for Care and Use of Laboratory Animals guidelines and applicable national laws in the facilities accredited by the Association for the Assessment and Accreditation of Laboratory Animal Care.
On the day of experiment, animals were brought from the animal facility into the experimental room and were allowed to acclimatize for at least 30 minutes. Animals were then placed in the test cages for a habituation period of 60 minutes. The animals were then injected ip with the test compound and returned to the test cage. 30 Minutes later, the mice were injected with d-amphetamine (2.0 mg/kg, AMP, Sigma, #A5880, sc) or phencyclidine (2.0 mg/kg, PCP, Sigma, #P3029, sc), and returned to the test cages for 90 minutes. […] The analyzed data were: fine movements, ambulations and total movements (fine+ambulations). […]

5HT2B receptors = biological target: T3, 5HT2B receptors (Homo sapiens, UniProt P41595); test: Human 5-HT2B functional assay in CHO-K1 cells (calcium flux, FLIPR); format: cell-based
T3 construct: expressed in transfected cells; host or cells: CHO-K1 cells
T3 sequence (P41595 whole entry): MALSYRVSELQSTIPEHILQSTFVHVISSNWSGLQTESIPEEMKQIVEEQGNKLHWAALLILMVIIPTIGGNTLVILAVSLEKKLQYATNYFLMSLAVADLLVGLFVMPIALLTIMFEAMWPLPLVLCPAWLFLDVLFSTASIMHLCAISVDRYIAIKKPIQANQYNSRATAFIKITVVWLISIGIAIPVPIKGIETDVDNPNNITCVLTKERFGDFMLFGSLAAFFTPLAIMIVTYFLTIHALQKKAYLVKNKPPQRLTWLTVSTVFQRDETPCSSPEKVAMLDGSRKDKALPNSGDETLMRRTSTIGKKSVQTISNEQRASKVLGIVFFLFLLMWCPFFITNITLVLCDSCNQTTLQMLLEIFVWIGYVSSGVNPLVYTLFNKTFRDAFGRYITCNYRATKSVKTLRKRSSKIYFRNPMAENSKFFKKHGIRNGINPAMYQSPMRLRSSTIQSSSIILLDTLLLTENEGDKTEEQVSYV
How it was run: as §1

spontaneous activity = test: Spontaneous activity in mice; format: in vivo; settings: vehicle or a dose of test compound, FIG. 2b, FIG. 3b
h-5-HT6 receptor = biological target: T4, h-5-HT6 receptor (Homo sapiens, UniProt P50406); test: Human 5-HT6 receptor radioligand binding assay ([3H]-LSD, HEK293 membranes); settings: HEK293 membranes, 1 nM [3H]-lysergic acid diethylamide, 3.5 hours at room temperature; read-out: Ki (μM), 5-HT6 Agonist Site Radioligand Binding
T4 construct: expressed in transfected cells; host or cells: HEK293 cells (membrane preparation)
T4 sequence (P50406 whole entry): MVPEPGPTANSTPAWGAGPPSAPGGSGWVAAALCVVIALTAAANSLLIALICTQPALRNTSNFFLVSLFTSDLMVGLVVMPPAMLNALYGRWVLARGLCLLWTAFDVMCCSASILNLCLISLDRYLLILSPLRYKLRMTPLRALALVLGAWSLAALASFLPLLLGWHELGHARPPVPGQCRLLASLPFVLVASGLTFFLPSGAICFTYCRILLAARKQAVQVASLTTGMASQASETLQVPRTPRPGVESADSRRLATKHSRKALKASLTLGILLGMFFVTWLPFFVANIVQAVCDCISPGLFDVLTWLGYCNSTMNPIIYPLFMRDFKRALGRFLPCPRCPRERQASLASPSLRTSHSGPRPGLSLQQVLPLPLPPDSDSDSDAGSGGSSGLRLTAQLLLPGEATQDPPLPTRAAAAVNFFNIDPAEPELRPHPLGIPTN
Method: (iv) Human 5-HT6 Receptor Radioligand Binding Assay
Preparation of Membranes by Ultrasonic Treatment and Differential Centrifugation
Cells from stable clonal cell lines expressing the corresponding receptor (5-HT6) were washed with PBS (without Ca^++, Mg^++) and harvested in PBS with 0.02% EDTA. The cells were collected by centrifugation at 500 g for 10 minutes at 4° C., washed with PBS and centrifuged (500 g, 10 minutes at 4° C.). The pellets were stored at −80° C. until use. For membrane preparation, the thawed cell pellet was resuspended in ice-cold sucrose buffer (0.25 M sucrose, 10 mM HEPES (pH 7.4), 1 mM phenylmethylsulfonyl fluoride (PMSF) in DMSO, 5 μg/ml Pepstatin-A, 3 mM EDTA, 0.025% Bacitracin) and homogenized with a Branson Sonifier W-250 (Settings: Timer 4; Output Control 3; Duty Cycle constant; 2 to 3 cycles). Cell disruption was checked with the aid of a microscope. Remaining unbroken cells were pelleted at 1,000 g for 10 minutes at 4° C. The sucrose buffer supernatant was then centrifuged at 60,000 g for 1 hour at 4° C. (Beckman Ultrazentrifuge XL 80). The pellet was resuspended in 30 mL of ice-cold Tris buffer (20 mM TRIS (pH 7.4), 5 μg/mL Pepstatin A, 0.1 mM PMSF, 3 mM EDTA) by pipetting through a 10 mL serological pipet and centrifuged for 1 hour at 4° C. at 60,000 g. A final resuspension was performed in a small volume of ice-cold Tris buffer (see above) by pressing through a serological pipet followed by ultrasonic treatment with a Branson Sonifier W-250 (Settings: Timer 1; Output Control 3; Duty Cycle constant; 1 cycle). Protein concentration was determined (BCA-Kit; Pierce) and aliquots stored at −80° C. or in liquid nitrogen for long-term storage.
Receptor Binding Experiments
All receptor binding experiments were carried out in the corresponding assay buffer in a total volume of 200 μL in the presence of various concentrations of test compound (10^−5 M to 10^−9 M, tenfold serial dilution, duplicate determinations). The assays were terminated by filtration on polyethylenimine (PEI 0.1% or 0.3%) presoaked Packard Unifilter Plates (GF/C or GF/B) with a Tomtec MachIII U 96 well-plate harvester. After the plates had been dried for 2 hours at 55° C. in a drying chamber scintillation cocktail (BetaPlate Scint; PerkinElmer) was added. Radioactivity was measured in a Microbeta Trilux two hours after the addition of the scintillation mixture.
5-HT6 Receptor Binding Assay
HEK293 cells stably expressing the h-5-HT6 receptor (NCBI Reference Sequence XM 001435) were cultured in RPMI1640 medium supplemented with 25 mM HEPES, 10% fetal calf serum and 1-2 mM glutamine. The membrane preparation was performed as described above. […] On the day of the assay, the membranes were thawed, diluted in assay buffer (50 mM Tris-HCl, 5 mM CaCl2, 0.1% ascorbic acid, 10 μM pargyline, pH 7.4) to a concentration of 8 μg protein/assay and homogenized by gentle vortexing. […] Non-specific binding was defined with 1 μM methiothepin. The binding reaction was carried out for 3.5 hours at room temperature. During the incubation, the plates were shaken on a plate shaker at 100 rpm and terminated by filtration on Packard Unifilter GF/C (0.1% PEI) plates, followed by 2 wash cycles with ice-cold 50 mM Tris-HCl, 5 mM CaCl2.
Data derived from liquid scintillation counting were analyzed by iterative non-linear regression analysis with the use of the Statistical Analysis System (SAS): a program similar to “LIGAND” as described by Munson and Rodbard (Anal. Biochem. 1980, 107, 220-239). Fitting was performed according to formulae described by Feldman (Anal. Biochem. 1972, 48, 317-338). IC50, nH and Ki values were expressed as geometrical mean.
The results of the receptor binding studies are expressed as receptor binding constants Ki(5-HT6) as described herein before, and given in Table 5.

[5] = CHO-K1 cells over-expressing 5HT2C, calcium flux, read-out: EC50 (μM), 5-HT2c Agonist Activity
[6] = CHO-K1 cells, read-out: Emax (%), 5-HT2c Agonist Activity
[7] = CHO-K1 cells over-expressing 5HT2B, calcium flux, read-out: EC50 (μM), 5-HT2B Agonist Activity

| EC50 (5HT2C receptors [1]; [5]) | Emax (5HT2C receptors [1]; [6]) | EC50 (5HT2C receptors [2]) | Emax (5HT2C receptors [2]; 1321N1 cells, percentage relative to the effect of serotonin, read-out: Emax (%), 5-HT2c Agonist Activity) | Ki [3] | EC50 (5HT2B receptors; [7]) | Emax (5HT2B receptors; CHO-K1 cells, percentage relative to the effect of serotonin, read-out: Emax (%), 5-HT2B Agonist Activity) | Ki (h-5-HT6 receptor) | Structure (SMILES) | AMP-induced hyperactivity ([4]; test compound ip 30 minutes before d-amphetamine 2.0 mg/kg sc, FIG. 1) | EC50 (5HT2C receptors [1]) | Emax (5HT2C receptors [1]; CHO-K1, read-out: Emax (%), 5-HT2c Agonist Activity, CHO-K1 cells) | AMP-induced hyperactivity ([4]; 10 and 30 mg/kg ip before d-amphetamine 2.0 mg/kg sc, FIG. 3a) | spontaneous activity (total activity counts) (spontaneous activity) | EC50 (5HT2B receptors) | AMP-induced hyperactivity ([4]; 1.0 and 3.0 mg/kg ip before d-amphetamine 2.0 mg/kg sc, FIG. 2a) |
| --- | --- | --- | --- | --- | --- | --- | --- | --- | --- | --- | --- | --- | --- | --- | --- |
| 0.0004 µM | > 120% | 0.0011 µM | 95% | 0.00071 µM | 5 µM | 55% |  | O=C1C[C@H]2CNCCN2c2cc(CCc3ccccc3)ccc2N1 [Example 42, (4aS)-10-(2-phenylethyl)-1,2,3,4,4a,5-hexahydropyrazino[1,2-a][1,5]benzodiazepin-6(7H)-one] | attenuated AMP-induced hyperactivity significantly and in a dose dependent manner; also recorded: concentration-dependent effects of Example 42 attenuating the affect of d-amphetamine |  |  |  |  |  |  |
|  |  |  |  |  |  |  |  | c1ccc2c(c1)OCC[C@H]1CNCCN21 [Example 169, (4aS)-2,3,4,4a,5,6-hexahydro-1H-pyrazino[2,1-d][1,5]benzoxazepine] |  | 0.001 µM | > 120% | attenuated AMP-induced hyperactivity significantly and in a dose dependent manner; also recorded: concentration-dependent effects of Example 169 attenuating the affect of d-amphetamine | no effects; also recorded: No change in spontaneous activity regardless of dose | > 10 µM |  |
|  |  | > 10 µM |  | 33 µM |  |  | 0.821 µM | O=C1NCC2CN(Cc3ccccc3)CCN2c2ccc(NS(=O)(=O)c3ccccc3)cc21 (stereo not drawn) [Example 47, N-(3-benzyl-7-oxo-1,2,3,4,4a,5,6,7-octahydropyrazino[1,2-a][1,4]benzodiazepin-9-yl)benzenesulfonamide] |  |  |  |  |  |  |  |
| 0.02 µM | > 120% |  |  |  | > 10 µM |  |  | CCOc1ccc2c(c1)N1CCNC[C@@H]1CC(=O)N2 [Example 181, (4aS)-10-ethoxy-1,2,3,4,4a,5-hexahydropyrazino[1,2-a][1,5]benzodiazepin-6(7H)-one] |  |  |  |  | no effects; also recorded: No change in spontaneous activity regardless of dose |  | attenuated AMP-induced hyperactivity significantly and in a dose dependent manner; also recorded: concentration-dependent effects of Example 181 attenuating the affect of d-amphetamine |

From patent US8546377B2 (AbbVie Inc., priority 2009, dated 2013)
